# Read-outs that look alike come from different tables or passages of the source. Starred links: 1 amine or outer side, 2 acyl side, 3 side chain; linkers in the order of their positions; H or OH if unused. Residues, ends and D or L forms follow the SMILES beside them. Groups on a side chain read outwards from the residue. *: point of attachment. C18 diacid = O=C(O)CCCCCCCCCCCCCCCCC(=O)*; γGlu = O=C(O)[C@H](CCC(=O)[*:2])N[*:1]; Palmitoyl = CCCCCCCCCCCCCCCC(=O)*; AEEA = NCCOCCOCC(=O)O
# Experiments:
# [1] = Physical stability, Thioflavin T fibrillation assay (Example 14); assay type: physicochemical; settings: 3 mg/ml, 37° C. shaking
# Method in brief: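 Compounds at 3 mg/ml final in buffer were stressed at 37° C by repeated cycles of 10 s shaking at 960 rpm and 50 s rest. ThT fluorescence was read every 20 minutes in eight replicates, with fluorescence increase and lag time indicating fibrillation tendency.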
# CRF1R receptor = biological target: T1, CRF1R receptor (Homo sapiens, UniProt P34998); assay: cAMP activity at anti-target CRF1R, CRF1R-overexpression CHO cell line (Example 9); assay type: cell-based
# T1 construct: host or cells: CHO-K1 clone 2
# T1 sequence (P34998 24-415): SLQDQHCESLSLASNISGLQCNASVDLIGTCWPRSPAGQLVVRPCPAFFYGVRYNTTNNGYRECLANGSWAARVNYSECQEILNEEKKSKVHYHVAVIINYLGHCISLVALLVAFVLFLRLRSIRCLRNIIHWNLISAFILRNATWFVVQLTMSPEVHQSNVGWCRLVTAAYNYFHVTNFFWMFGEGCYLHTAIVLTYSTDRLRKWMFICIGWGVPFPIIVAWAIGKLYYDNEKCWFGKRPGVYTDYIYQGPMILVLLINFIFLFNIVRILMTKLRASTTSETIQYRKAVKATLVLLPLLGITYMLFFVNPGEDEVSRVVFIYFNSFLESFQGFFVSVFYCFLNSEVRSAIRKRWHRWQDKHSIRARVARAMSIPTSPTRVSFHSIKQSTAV
# Method in brief: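 cAMP accumulation was read by HTRF after 30 min at room temperature of compound treatment. Cells were cryopreserved CHO cells overexpressing CRF1R, plated at 2000/well in IBMX (2 mM)-containing HBSS/HEPES buffer with 0 or 0.1% HSA. Activity was normalized to 1000 nM UCN2 as 100%.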
# [2] = Chemical stability, purity loss by UPLC-UV after 28 days at 40° C. vs 5° C., pH 4.5 acetate buffer (Example 12); assay type: physicochemical; settings: 28 days 40° C. vs 5° C.; pH 4.5, 20 mM acetate buffer; 300 μM
# Method: The chemical stability of the compounds was assessed by storing the compounds under various conditions and then determining the loss of purity by UPLC-UV.
# Prior to measuring the chemical stability of a batch of test compound, the purity of the compound was determined through UPLC/MS. For stability testing the target concentration was 300 μM pure compound. Therefore, solutions from solid samples were prepared in a pH 4.5, 20 mM acetate buffer system with a concentration of 300 μM compound based on the previously determined % purity:
# At the starting point, UPLC-UV was performed by injection of 2 μl of the undiluted sample. Aliquots were then stored for 28 days at temperatures of 5 and 40° C. […] Then 2 μl samples of the undiluted supernatant were analysed with UPLC-UV. The chemical stability was calculated by the equation: [(purity after 28 days at 5° C.)−(purity after 28 days at 40° C.)]/(purity after 28 days at 5° C.)]×100%. The purity was calculated as: [(peak area compound)/(total peak area)]×100%.
# [3] = Solubility in buffer systems by UPLC-UV (Example 13); assay type: physicochemical
# Method in brief: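 The supernatant was diluted 1:10 and quantified by UPLC-UV peak area against a reference standard curve, correcting for sequence-based extinction coefficients.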
# human CRF2α receptor = biological target: T2, human CRF2α receptor (Homo sapiens, UniProt Q13324); assay: cAMP agonism at human CRF2 α receptor in TeloHEAC cells (Example 7); assay type: cell-based; settings: cAMP HTRF, TeloHEAC cells stably expressing human CRF2 α
# T2 construct: expressed in transfected cells; host or cells: TeloHEAC
# T2 sequence (Q13324 1-411): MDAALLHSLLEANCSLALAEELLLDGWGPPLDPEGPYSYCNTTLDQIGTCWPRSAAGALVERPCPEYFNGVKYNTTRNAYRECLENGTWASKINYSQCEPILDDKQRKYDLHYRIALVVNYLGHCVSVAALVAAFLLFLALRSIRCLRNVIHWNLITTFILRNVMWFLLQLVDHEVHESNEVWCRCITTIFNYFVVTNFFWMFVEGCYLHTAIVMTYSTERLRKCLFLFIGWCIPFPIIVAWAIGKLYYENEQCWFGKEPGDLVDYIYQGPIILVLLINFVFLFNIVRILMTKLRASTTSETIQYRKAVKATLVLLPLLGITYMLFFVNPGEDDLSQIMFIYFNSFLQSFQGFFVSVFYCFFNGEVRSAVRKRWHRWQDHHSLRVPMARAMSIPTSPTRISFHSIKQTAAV
# Method in brief: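 Steps: thaw and wash cells; suspend in 1×HBSS, 20 mM HEPES, 0 or 0.1% HSA, 2 mM IBMX; add compound, 30 min RT; lyse with HTRF reagents, 1 h; read 665/620 nm. EC50 calculated, E% versus 1000 nM UCN2.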
# rat CRF2R α receptor = assay: cAMP agonism at rat CRF2R α receptor in A7R5 rat aortic smooth muscle cells (Example 8); assay type: cell-based; settings: cAMP HTRF, A7R5 rat aortic smooth muscle cell line, 0% HSA
# Method in brief: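 Thawed cryopreserved A7R5 cells in HBSS/20 mM HEPES (0 or 0.1% HSA) with 2 mM IBMX, 2000 cells/well, were exposed to compound for 30 min at room temperature. cAMP was read by HTRF (665/620 nm ratio) after 1 h with lysis reagents. Activity was normalised to 1000 nM urocortin 2 as 100%, and EC50 was taken as the concentration giving 50% of maximal activation.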
# [4] = Buffer A: 100 mM acetate buffer, pH 4.5
# [5] = Buffer B: 100 mM acetate buffer, pH 4.5, 2.7 mg/ml m-cresol
# [6] = 0% HSA, read-out: EC50 [nM], 0% HSA
SMILES,"Increase in FI (fluorescence intensity) [1, 4]","Lag time [1, 4] [h]","Increase in FI (fluorescence intensity) [1, 5]","Lag time [1, 5] [h]","Emax (CRF1R receptor; CRF1R-overexpression CHO cell line, read-out: Emax (%)) [%]",Relative purity loss [%] [2] [%],"solubility at 1 h ([3]; pH 4.5, Solubility in Buffer B [mg/ml]) [µg/mL]","solubility at 1 h ([3]; pH 7.4, Solubility in Buffer C [mg/ml]) [µg/mL]",EC50 (human CRF2α receptor; [6]) [nM],"EC50 (human CRF2α receptor; 0.1% HSA, read-out: EC50 [nM], 0.1% HSA) [nM]",EC50 (rat CRF2R α receptor) [nM],Emax (CRF1R receptor; CHO) [%],"solubility at 1 h ([3]; Buffer B: 100 mM acetate buffer, pH 4.5, 2.7 mg/ml m-cresol, target 10 mg/ml, read-out: Solubility in Buffer B) [µg/mL]","solubility at 1 h ([3]; Buffer C: 100 mM phosphate buffer, pH 7.4, target 10 mg/ml, read-out: Solubility in Buffer C) [µg/mL]"
CCCCCCCCCCCCCCCC(=O)N[C@@H](CCC(=O)NCCCC[C@H](NC(=O)[C@H](CC(C)C)NC(=O)CNC(=O)[C@@H](NC(=O)[C@@H]1CCCN1C(=O)[C@@H](NC(=O)[C@H](CC(=O)O)NC(=O)[C@H](CC(C)C)NC(=O)[C@H](CO)NC(=O)[C@H](CC(C)C)NC(=O)[C@@H](NC(=O)[C@@H](N)[C@@H](C)CC)C(C)C)C(C)C)[C@@H](C)CC)C(=O)N[C@@H](CCC(N)=O)C(=O)N[C@@H](CCCCN)C(=O)N[C@@H](CC(C)C)C(=O)N[C@@H](CC(C)C)C(=O)N[C@@H](CCCCN)C(=O)N[C@@H](CCC(N)=O)C(=O)N[C@@H](CCC(N)=O)C(=O)N[C@@H](CCCNC(=N)N)C(=O)N[C@@H](CCC(N)=O)C(=O)N[C@@H](CCCNC(=N)N)C(=O)N[C@@H](CCCCN)C(=O)N[C@@H](CCC(=O)O)C(=O)N[C@@H](CCCNC(=N)N)C(=O)N[C@@H](CCC(N)=O)C(=O)N[C@@H](CCC(N)=O)C(=O)N[C@@H](C)C(=O)N[C@@H](CCC(=O)O)C(=O)N[C@@H](CCCCN)C(=O)N[C@@H](CC(N)=O)C(=O)N[C@@H](C)C(=O)N[C@@H](CCCNC(=N)N)C(=O)N[C@H](C(=O)N[C@@H](CC(C)C)C(=O)N[C@@H](C)C(=O)N[C@@H](CCCNC(=N)N)C(=O)N[C@H](C(N)=O)C(C)C)[C@@H](C)CC)C(=O)O [compound 6] (H-IVLSLDVPIGLK([γGlu-Palmitoyl])QKLLKQQRQRKERQQAEKNARILARV-NH2; N-terminus assumed),No,>45,No,>45,47.2,1.9,> 8500,> 8100,0.16,0.18,,,,
CC[C@H](C)[C@H](N)C(=O)N[C@H](C(=O)N[C@@H](CC(C)C)C(=O)N[C@@H](CO)C(=O)N[C@@H](CC(C)C)C(=O)N[C@@H](CC(=O)O)C(=O)N[C@H](C(=O)N1CCC[C@H]1C(=O)N[C@H](C(=O)N[C@@H](CCCCN)C(=O)N[C@@H](CC(C)C)C(=O)N[C@@H](CCCCNC(=O)COCCOCCNC(=O)COCCOCCNC(=O)CC[C@H](NC(=O)CCCCCCCCCCCCCCCCC(=O)O)C(=O)O)C(=O)N[C@@H](CCC(N)=O)C(=O)N[C@H](C(=O)N[C@@H](CC(C)C)C(=O)N[C@@H](CC(C)C)C(=O)N[C@@H](CCCCN)C(=O)N[C@@H](CCC(N)=O)C(=O)N[C@@H](CCC(=O)O)C(=O)N[C@@H](CCCNC(=N)N)C(=O)N[C@@H](CCC(N)=O)C(=O)N[C@@H](CCCCN)C(=O)N[C@@H](CCCCN)C(=O)N[C@@H](CCC(N)=O)C(=O)N[C@@H](CCCNC(=N)N)C(=O)N[C@@H](CCC(N)=O)C(=O)N[C@@H](CCCCN)C(=O)N[C@@H](C)C(=O)N[C@@H](CCC(=O)O)C(=O)N[C@H](C(=O)N[C@@H](CC(N)=O)C(=O)N[C@@H](CCCCN)C(=O)N[C@@H](CCC(N)=O)C(=O)N[C@H](C(=O)N[C@@H](CC(C)C)C(=O)N[C@@H](C)C(=O)N[C@@H](CCC(N)=O)C(=O)N[C@H](C(N)=O)C(C)C)[C@@H](C)CC)[C@@H](C)O)[C@@H](C)CC)[C@@H](C)CC)C(C)C)C(C)C [compound 77] (H-IVLSLDVPIKLK([AEEA-AEEA-γGlu-C18 diacid])QILLKQERQKKQRQKAETNKQILAQV-NH2),,,Yes,23.0 to 29.7,,3.60,,,0.33,,3.26,1.56,> 8000,> 9000
